IC50 and MIC data for 24 compounds are collected here from patent US5696117A, “Benzoxazine antimicrobial agents” (Ortho Pharmaceutical Corporation, priority 1995, dated 1997).

≈ marks a conversion by molar mass, not a printed value.

One test deals with T1, Kinase A and SpoOF (Bacillus subtilis, UniProt P16497).
T1 construct: made in house; host or cells: recombinant E. coli (overexpression)
T1 sequence (P16497 1-606): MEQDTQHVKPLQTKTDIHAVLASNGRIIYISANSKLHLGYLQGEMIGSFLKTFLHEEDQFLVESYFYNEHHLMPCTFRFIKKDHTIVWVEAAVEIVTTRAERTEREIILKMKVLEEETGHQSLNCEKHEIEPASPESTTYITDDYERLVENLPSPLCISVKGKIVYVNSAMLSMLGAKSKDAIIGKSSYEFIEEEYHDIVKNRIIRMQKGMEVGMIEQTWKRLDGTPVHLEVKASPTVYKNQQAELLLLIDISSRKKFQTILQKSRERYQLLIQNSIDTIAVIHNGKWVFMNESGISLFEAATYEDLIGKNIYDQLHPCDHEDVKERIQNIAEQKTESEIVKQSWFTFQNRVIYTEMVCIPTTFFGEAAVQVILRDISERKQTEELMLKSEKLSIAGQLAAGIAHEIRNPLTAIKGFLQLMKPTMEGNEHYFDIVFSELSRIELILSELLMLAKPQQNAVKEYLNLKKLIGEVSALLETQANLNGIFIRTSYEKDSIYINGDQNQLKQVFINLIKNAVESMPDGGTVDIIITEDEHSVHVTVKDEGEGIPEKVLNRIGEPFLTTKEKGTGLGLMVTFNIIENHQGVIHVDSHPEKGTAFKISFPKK
Nature of the test: Autophosphorylation of Kinase A and Transphosphorylation of SpoOF Assay (HPK in vitro assay). The test is classed as biochemical. To be noted: inhibition of KinA autophosphorylation / SpoOF transphosphorylation, inhibitor concentrations from 1 to 500 μM. An outline of the steps:
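Recombinant KinA and SpoOF (from E. coli) preincubated 15 min on ice with compound (1.0 mM solution in 5% DMSO, stock), then 10 min at room temperature with [32P]ATP. Labelled proteins resolved by SDS gel, quantified by phosphoimager; IC50 from 1–500 μM compound range.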

In a further test the test system is gram positive bacteria. In words: MIC antimicrobial assay, microdilution broth method (NCCLS), gram positive bacteria. The class given is cell-based. Particulars: range over the gram positive test organisms; 35° C., 16-20 hours. The method, then: 2. MIC Anitimicrobial Assay
The in vitro antimicrobial activity of the compounds was determined by the microdilution broth method following the test method from the National Committee for Laboratory Standards (NCCLS). This method is described in the NCCLS Document M7-A2, Vol. 10, No. 8 "Methods for Dilution Antimicrobial Susceptibility Test for Bacteria that Grow Aerobically--Second Edition."
In this method two-fold serial dilutions of drug in cation supplemented Mueller-Hinton broth are added to wells in microdilution trays. The test organisms are prepared by adjusting the turbidity of actively growing broth cultures so that the final concentration of test organism after it is added to the wells is approximately 5×10^4 CFUs/well.
Following inoculation of the microdilution trays, the trays are incubated at 35° C. for 16-20 hours and then read. […] The amount of growth in the wells containing the test compound is compared with the amount of growth in the growth-control wells (no test compound) used in each tray. As set forth in Tables 1 and 2, compounds of the present invention were tested against a variety of Gram+ and Gram- pathogenic bacteria resulting in a range of activities, from 1→128 μg/mL depending on the organism tested. The following test organisms were utilized in the assay:
Enterococcus faecalis ATCC 29212
Enterococcus faecalis oc 3041
Enterococcus faecium oc 2993
Methicillin resistant Staphylococcus aureus oc 2089
Methicillin resistant Staphylococcus aureus oc667
Staphylococcus aureus ATCC 29213
Staphylococcus aureus ATCC 6538
Staphylococcus epidermidis oc 2603
On the technique in general: Broth dilution looks for growth in wells or tubes with falling amounts of substance.

A word on the IC50: it is the point on the concentration scale where inhibition reaches its midpoint. Higher therefore signals lower potency. A word on the MIC: it is the lowest concentration that inhibits growth of the organism. A high value points to a less susceptible organism.

At Kinase A and SpoOF, `NCc1ccc(OCCC2Oc3ccccc3N(Cc3cccc(Cl)c3)C2=O)cc1` (stereo not drawn) [Compound 2, 2-[2-[4-(Aminomethyl)phenoxy]ethyl]-4-(3-chlorobenzyl)-3,4-dihydro-3-oxo-2H-1,4-benzoxazine] registered an IC50 of 55 µM. This compound also displayed an MIC against gram positive bacteria of 8 to 32 µg/mL (≈ 18.9 to 75.7 µM).

Consider `NCc1ccc(OCCC2Oc3ccccc3N(Cc3ccc(Cl)cc3)C2=O)cc1` (stereo not drawn) [Compound 4, 2-[2-[4-(Aminomethyl)phenoxy]ethyl]-4-(4-chlorobenzyl)-3,4-dihydro-3-oxo-2H-1,4-benzoxazine], for which, on Kinase A and SpoOF, the IC50 was 47 µM. Further, the MIC against gram positive bacteria fell in the range of 8 to 16 µg/mL (≈ 18.9 to 37.8 µM).

`NCCc1cccc(OCCC2Oc3ccccc3N(Cc3ccccc3Cl)C2=O)c1` (stereo not drawn) [Compound 16, 2-[2-[3-(2-Aminoethyl)phenoxy]ethyl]-4-(2-chlorobenzyl)-3,4-dihydro-3-oxo-2H-1,4-benzoxazine]: the IC50 against Kinase A and SpoOF was 74 µM. The compound also gave an MIC against gram positive bacteria of 8 to 16 µg/mL (≈ 18.3 to 36.6 µM).

`N=C(N)NCc1ccc(OCCC2Oc3ccccc3N(Cc3ccccc3Cl)C2=O)cc1` (stereo not drawn) [Compound 19, 4-(2-Chlorobenzyl)-2-[2-[4-(guanidinomethyl)phenoxy]ethyl]-3,4-dihydro-3-oxo-2H-1,4-benzoxazine]: the IC50 against Kinase A and SpoOF stood at 16 µM. In the test with gram positive bacteria, the MIC was in the range of 1 to 4 µg/mL (≈ 2.15 to 8.6 µM).

In the case of `N=C(N)NCCc1ccc(OCCC2CN(Cc3ccc(Cl)cc3)c3ccccc3O2)cc1` (stereo not drawn) [Compound 22, 4-(4-Chlorobenzyl)-2-[2-[4-(2-guanidinoethyl)phenoxy]ethyl]-3,4-dihydro-2H-1,4-benzoxazine], the IC50 against Kinase A and SpoOF was determined as 41 µM. For the same compound, the MIC against gram positive bacteria fell in the range of 2 to 4 µg/mL (≈ 4.3 to 8.6 µM).

For `N=C(N)NCCc1ccc(OCCC2CN(Cc3cccc(Cl)c3)c3ccccc3O2)cc1` (stereo not drawn) [Compound 23, 4-(3-Chlorobenzyl)-2-[2-[4-(2-guanidinoethyl)phenoxy]ethyl]-3,4-dihydro-2H-1,4-benzoxazine], the IC50 against Kinase A and SpoOF came to 17 µM. Moreover, in the test with gram positive bacteria, the MIC is 1 to 2 µg/mL (≈ 2.15 to 4.3 µM).

In turn, `N=C(N)NCCc1ccc(OCCC2Oc3ccccc3N(Cc3ccc(Cl)cc3)C2=O)cc1` (stereo not drawn) [Compound 26, 4-(4-Chlorobenzyl)-3,4-dihydro-2-[2-[4-(2-guanidinoethyl)phenoxy]ethyl]-3-oxo-2H-1,4-benzoxazine] had an IC50 on Kinase A and SpoOF of 68 µM. The compound further registered an MIC in the test with gram positive bacteria of 2 to 4 µg/mL (≈ 4.18 to 8.35 µM).

For `NCc1ccc(OCCC2Oc3ccccc3N(Cc3cc(Cl)cc(Cl)c3)C2=O)cc1` (stereo not drawn) [Compound 39, 2-{2-[4-(2-Aminomethyl)phenoxy]ethyl}-4-(3,5-dichlorobenzyl)-3,4-dihydro-3-oxo-2H-1,4-benzoxazine], the IC50 against Kinase A and SpoOF is listed as 46 µM. Moreover, the MIC in the test on gram positive bacteria was in the range of 4 to 16 µg/mL (≈ 8.75 to 35 µM).

As for `N=C(N)NCCc1ccc(OCCC2Oc3ccccc3N(Cc3cc(Cl)cc(Cl)c3)C2=O)cc1` (stereo not drawn) [Compound 40, 4-(3,5-Dichlorobenzyl)-3,4-dihydro-2-{2-[4-(2-guanidinoethyl)phenoxy]ethyl}-3-oxo-2H-1,4-benzoxazine], on Kinase A and SpoOF, the IC50 was found to be 24 µM. The same compound registered a minimal inhibitory concentration (MIC) against gram positive bacteria of 2 µg/mL (≈ 3.9 µM).

Consider `N=C(N)NCCc1ccc(OCCC2Oc3ccc(Cl)cc3N(Cc3cccc(Cl)c3)C2=O)cc1` (stereo not drawn) [Compound 50, 6-Chloro-4-(3-chlorobenzyl)-2-{2-[4-(2-guanidinoethyl)phenoxy]ethyl}-3,4-dihydro-3-oxo-2H-1,4-benzoxazine], for which the IC50 against Kinase A and SpoOF is on record as 9 µM. Also, in the test on gram positive bacteria, the MIC came out at 2 µg/mL (≈ 3.9 µM).

As to `Cc1ccc2c(c1)OC(CCOc1ccc(CCNC(=N)N)cc1)C(=O)N2Cc1cccc(Cl)c1` (stereo not drawn) [Compound 58, 4-(3-Chlorobenzyl)-2-{2-[4-(2-guanidinoethyl)phenoxy]ethyl}-3,4-dihydro-7-methyl-3-oxo-2H-1,4-benzoxazine], the IC50 against Kinase A and SpoOF worked out at 17 µM. This compound displayed an MIC with gram positive bacteria of 2 µg/mL (≈ 4.06 µM).

With `CN1C(=O)C(CCOc2ccc(CCNC(=N)N)cc2)Oc2ccccc21` (stereo not drawn) [Compound 60, 3,4-Dihydro-2-{2-[4-(2-guanidinoethyl)phenoxy]ethyl}-4-methyl-3-oxo-2H-1,4-benzoxazine], the IC50 at Kinase A and SpoOF is listed as 55 µM. This compound also had a minimum inhibitory concentration (MIC) in the test on gram positive bacteria of 16 to 34 µg/mL (≈ 43.4 to 92.3 µM).

The compound `NCCc1cccc(OCCC2Oc3ccccc3N(Cc3cc(Cl)cc(Cl)c3)C2=O)c1` (stereo not drawn) [Compound 64, 2-{2-[3-(2-Aminoethyl)phenoxy]ethyl}-4-(3,5-dichlorobenzyl)-3,4-dihydro-3-oxo-2H-1,4-benzoxazine] returned an IC50 at Kinase A and SpoOF of 32 µM. Besides, in the test on gram positive bacteria, the MIC lay in the range of 4 to 8 µg/mL (≈ 8.49 to 17 µM).

Compound `NCCc1cccc(OCCC2Oc3ccccc3N(Cc3cccc(Cl)c3)C2=O)c1` (stereo not drawn) [Compound 70, 2-{2-[3-(2-Aminoethyl)phenoxy]ethyl}-4-(3-chlorobenzyl)-3,4-dihydro-3-oxo-2H-1,4-benzoxazine] yielded an IC50 against Kinase A and SpoOF of 65 µM. Moreover, in the test on gram positive bacteria, the MIC was 8 to 16 µg/mL (≈ 18.3 to 36.6 µM).

Compound `N=C(N)NCCc1ccc(OCCC2Oc3ccccc3N(Cc3cccc(Cl)c3)C2=O)cc1` (stereo not drawn) [Compound 72, 4-(3-Chlorobenzyl)-3,4-dihydro-2-{2-[4-(2-guanidinoethyl)phenoxy]ethyl}-3-oxo-2H-1,4-benzoxazine] yielded an IC50 at Kinase A and SpoOF of 30 µM. The same compound gave a minimum inhibitory concentration (MIC) in the test on gram positive bacteria of 2 to 4 µg/mL (≈ 4.18 to 8.35 µM).

At Kinase A and SpoOF, `CC(C)(C)OC(=O)NCCc1ccc(OCCC2Oc3ccccc3N(Cc3cccc(C(=O)O)c3)C2=O)cc1` (stereo not drawn) [Compound 111, 3-{3,4-Dihydro-2-[2-(4-(2-(-t-butoxycarbonylamino)ethyl)phenoxy)]ethyl-3-oxo-2H-1,4-benzoxazin-4-yl}methylbenzoic Acid] returned a concentration for half-maximal inhibition (IC50) of 113 µM.

With `NCCc1ccc(OCCC2Oc3ccccc3N(Cc3cccc(C(=O)O)c3)C2=O)cc1` (stereo not drawn) [Compound 112, 3-{3,4-Dihydro-2-[2-(4-(2-aminoethyl)phenoxy)]ethyl-3-oxo-2H-1,4-benzoxazin-4-yl}methylbenzoic Acid], on Kinase A and SpoOF, the IC50 is 254 µM.

On Kinase A and SpoOF, `O=C(O)CCc1cccc(OCCC2Oc3ccccc3N(Cc3cccc(Cl)c3)C2=O)c1` (stereo not drawn) [Compound 127, 3-[3-[2-{4-(3-Chlorobenzyl)-3,4-dihydro-3-oxo-2H-1,4-benzoxazin-2-yl}ethoxy]phenyl]propionic Acid] registered an IC50 of 251 µM. The IC50 values of the last two compounds are within 1.5-fold of each other.

Turning to `O=C1NC(=O)C(c2ccc(OCCC3Oc4ccccc4N(Cc4cccc(Cl)c4)C3=O)cc2)S1` (stereo not drawn) [Compound 134, 5-[4-{2-[4-(3-Chlorobenzyl)-3,4-dihydro-3-oxo-2H-1,4-benzoxazin-2-yl]ethoxy}phenyl]thiazolidine-2,4-dione], the IC50 on Kinase A and SpoOF came to 23 µM.

In turn, `N=C(N)NCCc1ccc(OCCC2Oc3ccccc3N(Cc3ccc([N+](=O)[O-])cc3)C2=O)cc1` (stereo not drawn) [Compound 139, 3,4-Dihydro-2-{2-[4-(2-guanidinoethyl)-phenoxy]ethyl}-4-(4-nitrobenzyl)-3-oxo-2H-1,4-benzoxazine] gave a 50% inhibitory concentration (IC50) against Kinase A and SpoOF of 24 µM. The IC50 values of the last two compounds are within 1.5-fold of each other.

`COc1ccc(CN2C(=O)C(CCOc3ccc(CCNC(=NC(=O)OC(C)(C)C)NC(=O)OC(C)(C)C)cc3)Oc3ccccc32)cc1` (stereo not drawn) [Compound 140, 2-{2-[4-[2-(N,N-Bis-tert-butoxycarbonylguanidino)ethyl]phenoxy]ethyl}-3,4-dihydro-4(4-methoxybenzyl)-3-oxo-2H-1,4-benzoxazine] displayed an IC50 against Kinase A and SpoOF of 343 µM.

On to `NCCCc1ccc(OCCC2Oc3ccccc3N(Cc3ccc(Cl)cc3)C2=O)cc1` (stereo not drawn) [Compound 142, 2-[2-[4-(3-Aminopropyl)phenoxy]ethyl]-4-(4-chlorobenzyl)-3,4-dihydro-3-oxo-2H-1,4-benzoxazine], for which, at Kinase A and SpoOF, the IC50 amounted to 42 µM. This IC50 lies about 8.2-fold lower than the previous one.

Compound `CC(C)(C)OC(=O)N=C(NCCc1ccc(OCCC2Oc3cc([N+](=O)[O-])ccc3N(Cc3ccccc3[N+](=O)[O-])C2=O)cc1)NC(=O)OC(C)(C)C` (stereo not drawn) [Compound 143, 2-{2-[4-(2-(N,N-Bis-tert-butoxycarbonylguanidino)ethyl)phenoxy]ethyl}-3,4-dihydro-7-nitro-4-(2-nitrobenzyl) 3-oxo-2H-1,4-benzoxazine] came in with an IC50 against Kinase A and SpoOF of 73 µM.

The compound `CC(C)(C)OC(=O)NCCc1ccc(OCCC2Oc3ccccc3N(Cc3cccc(Cl)c3)C2=O)cc1` (stereo not drawn) [Compound 144, 2-[2-[4-(2-(t-Butoxycarbonylamino)ethyl)phenoxy]ethyl]-4-(3-chlorobenzyl)-3,4-dihydro-3-oxo-2H-1,4-benzoxazine] yielded a 50% inhibitory concentration (IC50) at Kinase A and SpoOF of 348 µM.
